Assay results: PMC5626011 (Bioorganic & Medicinal Chemistry Letters, 2017)

What was measured:
EBOV (Makona) = assay type: cell-based, Ebola virus (EBOV)
SUDV (Gulu) = assay type: cell-based, Sudan virus (SUDV)
MARV (Ci67) = assay type: cell-based, Marburg virus (MARV)
[1] = test system: recombinant Ebola virus Makona expressing ZsGreen (rEBOV/ZsG); assay type: cell-based

Structure (SMILES)	EBOV EC50 (EBOV (Makona))	SUDV EC50 (SUDV (Gulu))	MARV EC50 (MARV (Ci67))	EC50 ([1]; read-out: EBOV EC50) [nM]	fold less potent than compound 1 [1] [fold]
COc1nc(N)ncc1-c1cn(COCCO)cn1 [compound 1]	no detectable activity	no detectable activity	no detectable activity	2200 ± 300	
CCC(CC)COC(=O)[C@H](C)N[P@](=O)(OCCOCn1cnc(-c2cnc(N)nc2OC)c1)Oc1ccccc1 [compound 3]					~10
